Assay results taken from patent US7534762B2, “Polypeptides having antimicrobial activity and polynucleotides encoding same” (Novozymes A/S, priority 2005, dated 2009).

Assays:
Assay in all cases: Radial diffusion assay
Type in all cases: cell-based
[1] = tested on: Acinetobacter anitratus (ATCC 17903); conditions: TCA precipitated culture supernatant, 100 x concentrated; 10 units = 1 mm diameter clear zone around the 3 mm sample well
Method: (§1) The supernatants described above in Example 4 were analyzed in a radial diffusion assay following a previously published protocol for detection of antimicrobial activity (Lehrer et al., (1991) Ultra sensitive assays for endogenous antimicrobial polypeptides J Immunol Methods 137: 167-173). Target bacteria (10^6 colony forming units (CFU)) were added to 10 ml of underlay agarose (1% low electro-endosmosis agarose, 0.03% Trypticase soy broth, 10 mM sodium phosphate, pH 7.4, 37 degrees Celsius). Suspension was solidified on an INTEGRID Petri Dish (Becton Dickinson Labware, NJ). A 3 mm Gel Puncher was used to make holes in the underlay agarose (Amersham Pharmacia Biotech, Sweden). Samples were added to the holes and incubated at 37 degrees Celsius, 3 hours. An overlay was poured on top and the plate was incubated overnight (LB media, 7.5% Agar). Antimicrobial activity was seen as bacterial clearing zones around the wells. Living cells was counterstained by adding 10 ml, 0.2 mM MTT (3-(4,5-Dimethylthiazol-2-yl)-2,5-diphenyltetrazolium bromide Thiazolyl blue). All standard protocols have been described elsewhere (Sambrook, Fritsch, and Maniatis, 1989). An electronic picture is taken. The bacterial growth inhibition is seen as clearing zones, which are measured to the nearest 0.1 mm and subtracted the diameter of the hole. The results are shown as zones of inhibition of native samples (Table 3) and concentrated samples (Table 4) against a range of test strains: • A: Staphylococcus simulans (ATCC 11631) • B: Staphylococcus carnosus (ATCC 51365) • C: Streptococcus hyointestinalis (ATCC 49169) • D: Bacillus subtilis (ATCC 23857) • E: Enterococcus saccharolyticus (ATCC 43076) • F: Escherichia coli (ATCC 10536) • G: Acinetobacter anitratus (ATCC 17903) • H: Erwinia chrysanthemi (ATCC 11663) • J: Pseudomonas boreopolis (ATCC 15452)
(§2) Concentration of samples was performed by precipitation of 45 ml culture supernatant with 2.5 ml 100% TCA and resuspension of the pelleted precipitate in 450 μl resuspension buffer (100 mM Tris pH 8, 100 mM NaCl).

[2] = tested on: Bacillus subtilis (ATCC 23857); conditions: 10 units = 1 mm diameter clear zone around the 3 mm sample well
Method: as §1, §2

[3] = tested on: Enterococcus saccharolyticus (ATCC 43076); conditions: 10 units = 1 mm diameter clear zone around the 3 mm sample well
Method: as §1, §2

[4] = tested on: Erwinia chrysanthemi (ATCC 11663); conditions: TCA precipitated culture supernatant, 100 x concentrated; 10 units = 1 mm diameter clear zone around the 3 mm sample well
Method: as §1, §2

[5] = tested on: Escherichia coli (ATCC 10536); conditions: TCA precipitated culture supernatant, 100 x concentrated; 10 units = 1 mm diameter clear zone around the 3 mm sample well
Method: as §1, §2

[6] = tested on: Pseudomonas boreopolis (ATCC 15452); conditions: TCA precipitated culture supernatant, 100 x concentrated; 10 units = 1 mm diameter clear zone around the 3 mm sample well
Method: as §1, §2

[7] = tested on: Staphylococcus carnosus (ATCC 51365); conditions: 10 units = 1 mm diameter clear zone around the 3 mm sample well
Method: as §1, §2

[8] = tested on: Staphylococcus simulans (ATCC 11631); conditions: TCA precipitated culture supernatant, 100 x concentrated; 10 units = 1 mm diameter clear zone around the 3 mm sample well
Method: as §1, §2

[9] = tested on: Streptococcus hyointestinalis (ATCC 49169); conditions: 10 units = 1 mm diameter clear zone around the 3 mm sample well
Method: as §1, §2

[10] = TCA precipitated culture supernatant, 100 x concentrated
[11] = native culture supernatant of recombinant A. oryzae clone

| Substance | zone of inhibition, test strain G [1] [units] | zone of inhibition, test strain D [2, 10] [units] | zone of inhibition, test strain D [2, 11] [units] | zone of inhibition, test strain E [3, 10] [units] | zone of inhibition, test strain E [3, 11] [units] | zone of inhibition, test strain H [4] [units] | zone of inhibition, test strain F [5] [units] | zone of inhibition, test strain J [6] [units] | zone of inhibition, test strain B [7, 10] [units] | zone of inhibition, test strain B [7, 11] [units] | zone of inhibition, test strain A [8] [units] | zone of inhibition, test strain C [9, 10] [units] | zone of inhibition, test strain C [9, 11] [units] |
| --- | --- | --- | --- | --- | --- | --- | --- | --- | --- | --- | --- | --- | --- |
| Marinasin 2A: Arenicola marina antimicrobial polypeptide, amino acids 1 to 46 of SEQ ID NO: 12, expressed in Aspergillus oryzae (MNQITLLMLLVAVAVMATVTGQSLDDESDVENVSQPEQRGWCWQWT; listed as Arenicola marina) | 39 | 38 | 16 | 41 | 14 | 40 | 25 | 39 | 35 | 26 | 34 | 35 | 12 |
| Marinasin 1B: Arenicola marina antimicrobial polypeptide, amino acids 1 to 49 of SEQ ID NO: 8, expressed in Aspergillus oryzae (MKFFLPIMIALAFAAVAMATADTEPVEPEEELSIMLPFVEDDLLEKPIP; listed as Arenicola marina) | 26 | 28 | 10 | 30 | 9 | 25 | 25 | 28 | 25 | 21 | 22 | 22 | 10 |
| Marinasin 5: Arenicola marina antimicrobial polypeptide, amino acids 1 to 49 of SEQ ID NO: 24, expressed in Aspergillus oryzae (MKFLLPLMVVMAFAAVAMATADTEPVEREEGVFIMLPFVEDDMLEKPIL; listed as Arenicola marina) | 26 | 25 |  | 23 |  | 26 | 19 | 22 | 13 |  | 22 | 24 |  |
| Marinasin 4: Arenicola marina antimicrobial polypeptide, amino acids 1 to 45 of SEQ ID NO: 22, expressed in Aspergillus oryzae (MKPIILLMLLVAVVVMATVTAEPLDEESDVEIVSQPEQRIPCWTP; listed as Arenicola marina) | 6 | 32 | 32 | 68 | 43 | 0 | 0 | 0 | 81 | 60 | 14 | 59 | 54 |
| Marinasin 6: Arenicola marina antimicrobial polypeptide, amino acids 1 to 44 of SEQ ID NO: 26, expressed in Aspergillus oryzae (MTTLLLMFGVAIVVLATVAAVPLQDDDVLDPSGLVEGETRGRSC; listed as Arenicola marina) |  |  | 39 |  | 40 |  |  |  |  |  |  |  | 45 |
